For orientation: melting point means the temperature, or range, at which the solid turns liquid. Compound `C[C@@H]1CCCN1CCc1nc2cc(-c3ccc(C#N)cc3)ccc2o1` [Example 24E, 4-{2-[2-(2-(R)-methyl-pyrrolidin-1-yl)-ethyl]-benzooxazol-5-yl}-benzonitrile] registered a melting point of 70 to 72 °C.
